Test results from patent US20220008402A1, “INCREASED E-CADHERIN EXPRESSION OR ACTIVITY FOR THE TREATMENT OF INFLAMMATORY DISEASES” (The Cleveland Clinic Foundation, priority 2020, published 2022).
“Also recorded” adds a separate entry of the source.

Assays:
E-cadherin = details: literature reports; cited from earlier work
T84 cell monolayers [1] = experiment: Epithelial barrier permeability in vitro (TEER, FITC-dextran flux), steady state; format: cell-based, human; details: 10 μM
Protocol: (§1) FIG. 1: E-cadherin-enhancing drugs decrease ionic permeability of model colonic epithelial cell monolayers. Confluent T84 (A), HT-29cF8 (B) and SK-0015 (C) cell monolayers were treated for indicated times with either vehicle, E-cadherin upregulator (ECU, 10 μM), or ML327 (10 μM). Transepithelial electrical resistance (TEER) of the cell monolayers was measured before and during the drug treatment. Data is presented as mean ±SE (n=3); *P<0.05.
(§2) FIG. 2: E-cadherin-enhancing drugs decrease colonic epithelial permeability to large molecules. Confluent T84 (A), HT-29cF8 (B) and SK-C015 (C) cell monolayers were treated with either vehicle, ECU, or ML327, as described in the FIG. 1 legend. Trans-monolayer flux of FITC-dextran was determined at the end of the drug treatment. Data is presented as mean ±SE (n=3); **P<0.05 ***P<0.01.
(§3) Transepithelial electrical resistance (TEER) of cultured T84, HT-29 and SK-C015 intestinal epithelial cell monolayers was measured using an EVOMX voltohmmeter (World Precision Instruments, Sarasota, Fla.). Cells were plated on collagen-coated transwell filters (pore size 3 μm, Thermo-Fisher). The resistance of cell-free collagen-coated filters was subtracted from each experimental point. An in vitro dextran flux assay was performed by a following commonly-used protocol. Intestinal epithelial cell monolayers growing on transwell filters were apically exposed to 1 mg/ml of FITC-labeled dextran (4,000 Da) in HEPES-buffered Hanks balanced salt solution (HBSS). After 120 min of incubation, HBSS samples were collected from the lower chamber, and FITC fluorescence intensity was measured using a Victor^3 V plate reader (Perkin Elmer, Waltham, Mass.) with excitation and emission wavelengths 485 and 544 nm, respectively. After subtracting the fluorescence of dextran-free HBSS the amount of FITC dextran translocated across the epithelial cell monolayer was calculated based on a calibration curve using Prism 5 software (GraphPad, La Jolla, Calif.).
(§4) One set of experiments examined the effects of E-cadherin upregulator (ECU) and ML327 on the barrier properties of normal model intestinal epithelial cell monolayers. Three different human colonic epithelial cell lines, namely, T84, SK-0015 and HT-29 cF8 cells, were used. Cells were plated on collagen-coated transwell filters and allowed to reach confluency and differentiate for 5-7 days after plating. Thereafter, cell monolayers were exposed to either ECU (10 μM), ML327 (10 μM) or vehicle (DMSO). Transepithelial electrical resistance (TEER) was measured before and at different times after addition of E-cadherin-enhancing drugs. A transepithelial flux of FITC-dextran was examined at the end of the drug exposure to evaluate epithelial permeability to large uncharged molecules.

[2] = test system: HT-29 cF8 cell monolayers; experiment: as above; format: cell-based, human; details: 10 μM
Protocol: as §1, §2, §3, §4

SK-0015 cell monolayers = experiment: as above; format: cell-based, human; details: 10 μM
Protocol: as §1, §2, §3, §4

T84 cell monolayers [3] = experiment: Cytokine (TNFα/IFNγ)-induced disruption of the epithelial barrier (TEER, FITC-dextran flux); format: cell-based, human; details: 10 μM pretreatment 24 h, then TNFα 10 ng/ml + IFNγ 50 ng/ml, 48 h
Protocol: Confluent T84 cell monolayers were pretreated with either vehicle, or ECU (10 μM) for 24 h. Afterwards, cells were exposed to a combination of TNFα (10 ng/ml) and IFNγ (50 ng/ml) with and without ECU. (A) TEER was measured at the indicated times. (B) FITC-dextran flux was examined after 48 h incubation with cytokines. Data is presented as mean ±SE (n=3); ***P<0.001.
Confluent T84 cell monolayers were pretreated with either vehicle, or ML327 (10 μM) for 24 hours. Afterwards, cells were exposed to a combination of TNFα (10 ng/ml) and IFNγ (50 ng/ml) with and without ML327. (A) TEER was measured at the indicated times. (B) FITC-dextran flux was examined after 48 h incubation with cytokines. Data is presented as mean ±SE (n=3); **P<0.05, ***P<0.001.
as §3
A combination of two cytokines were selected: tumor necrosis factor alpha (TNFα, 10 ng/ml) and interferon-gamma (IFNγ, 50 ng/ml), which are known to compromise barrier integrity and trigger apical junction disassembly in cultured epithelial cell monolayers and intestinal mucosa in mice. Indeed, 48 hour incubation of well-differentiated T84 cell monolayers with TNFα and IFNγ caused a dramatic decrease in TEER (FIGS. 3A, 4A) and increase in transepithelial dextran flux (FIGS. 3B, 4B), which indicates the increase in barrier permeability. […] Next, it was examined if ECU protects epithelial adherens junctions (AJ) and tight junctions (TJ) from cytokine-induced disassembly. Immunofluorescence labeling of a specific AJ marker, E-cadherin, and a TJ marker, ZO-1, was used to visualize structure of different junctional complexes. […]

T84 cell monolayers [4] = experiment: Immunoblotting of signaling molecules after multiple wounding; format: cell-based, human; details: 10 μM pretreatment 24 h; lysates 12 and 24 h post-wounding
Protocol: Confluent T84 cell monolayers were pretreated with either vehicle, ECU (10 μM), or ML327 (10 μM), for 24 h, and were subjected to multiple wounding. Total cell lysates were collected at 12 and 24 h post-wounding, and the expression of different signaling molecules was determined by immunoblotting. Representative immunoblots (A) and densitometric quantification of protein band intensities from three independent experiments (B) are shown. Data are presented as a mean ±SE (n=3); *p<0.05; **p<0.01.
To prepare total cell lysates, epithelial cell monolayers were scraped and homogenized using a Dounce homogenizer in RIPA buffer (20 mM Tris, 50 mM NaCl, 2 mM EDTA, 2 mM EGTA, 1% sodium deoxycholate, 1% Triton X-100 (TX-100), and 0.1% SDS, pH 7.4) containing protease inhibitor cocktail and phosphatase inhibitor cocktails 2 and 3 (Sigma-Aldrich). The obtained total cell lysates were cleared by centrifugation (20 min at 14,000×g), diluted with 2×SDS sample loading buffer and boiled. SDS-polyacrylamide gel electrophoresis was conducted using a standard protocol with equal amounts of total protein (10 or 20 μg) loaded per each lane. The separated proteins were transferred to nitrocellulose membranes and the membranes were blocked with 5% non-fat milk. […]

T84 cell monolayers [5] = experiment: Wound healing assay; format: cell-based, human; details: 10 μM pretreatment 24 h, migration 24-48 hours
Protocol: FIG. 8: E-cadherin-enhancing drug promote collective migration of intestinal epithelial cells. Confluent T84 cell monolayers were pretreated with either vehicle, ECU (10 μM) or ML327 (10 μM) for 24 hours. Afterwards, cell monolayers were wounded and allowed to migrate into wound area in the presence of the drugs. Cell monolayers were photographed and wound closure was calculated at the indicated times. Data is presented as mean ±SE (n=3); **P<0.05, ***P<0.01.
Confluent epithelial cell monolayers were mechanically wounded by making a thin scratch wound with a 200 μl pipette tip. The bottom of the well was marked to define the position of the wound and the monolayers were supplied with fresh cell culture medium. The images of a cell-free area at the marked region were acquired at the indicated times after wounding using an inverted bright field microscope equipped with a camera. The percentage of wound closure was calculated using an Image J software (NIH, Bethesda, Md.).
Finally, the effects of E-cadherin-enhancing drugs on epithelial restitution (wound healing) were examined. This is an important question given the fact that epithelial wounds are frequently formed in inflamed intestinal mucosa of IBD patients and wound healing is necessary to restore the integrity of the gut barrier and to achieve remission of chronic inflammatory diseases. […]

[6] = rapid (within 24 h) and sustained (up to 96 h), vs vehicle (DMSO)
[7] = at the end of the drug exposure

SMILES: CN(C)C(=S)NN=C(c1ccccn1)c1ccccn1 [Dp44mT, Di(2-pyridyl)ketone 4,4-dimethyl-3-thiosemicarbazone]
- E-cadherin expression (E-cadherin): stimulate E-cadherin expression

SMILES: Nc1ncn([C@@H]2O[C@H](CO)[C@@H](O)[C@H]2O)c(=O)n1 [5-Axacytidine]
- E-cadherin expression (E-cadherin): stimulate E-cadherin expression

SMILES: CN(C(=S)NN=C(c1ccccn1)c1ccccn1)C1CCCCC1 [DpC, di(2-pyridyl)ketone 4-cyclohexyl-4-methyl-3-thiosemicarbazone]
- E-cadherin expression (E-cadherin): stimulate E-cadherin expression

SMILES: CN(Cc1cnc2nc(N)nc(N)c2n1)c1ccc(C(=O)N[C@@H](CCC(=O)O)C(=O)O)cc1 [methotrexate]
- E-cadherin expression (E-cadherin): stimulated E-cadherin expression

SMILES: O=C(NCCCNC(=O)c1cccnc1O)c1cc(-c2ccccc2)on1 [ML327, N-(3-(2-hydroxynicotinamido)propyl)-5-phenylisoxazole-3-carboxamide]
- Transepithelial flux of FITC-dextran (T84 cell monolayers [1]; at the end of the drug exposure, T84): significantly inhibited FITC-dextran flux
- Transepithelial electrical resistance (TEER) (T84 cell monolayers [1]; [6]): increase in TEER
- Transepithelial flux of FITC-dextran [2, 7]: significantly inhibited FITC-dextran flux
- Transepithelial electrical resistance (TEER) ([2]; up to 96 h, vs vehicle (DMSO)): transiently increased TEER for the first 48 hours with its subsequent decrease at later times
- Transepithelial flux of FITC-dextran (SK-0015 cell monolayers; [7]): significantly inhibited FITC-dextran flux
- Transepithelial electrical resistance (TEER) (SK-0015 cell monolayers; [6]): increase in TEER
- Cytokine-induced decrease in TEER (T84 cell monolayers [3]): prevents cytokine-induced disruption; also recorded: markedly attenuated
- Cytokine-induced increase in transepithelial FITC-dextran flux (T84 cell monolayers [3]): prevents cytokine-induced disruption; also recorded: markedly attenuated
- Expression of signaling molecules (pro-migratory signaling) (T84 cell monolayers [4]): activation of pro-migratory signaling events
- Cell migration during wound healing (wound closure) (T84 cell monolayers [5]): significantly increased migration

SMILES: CCCCCCCCCCCCC/C=C/[C@@H](O)[C@@H](N)COP(=O)(O)O [Sphingosine-1-Phosphate]
- E-cadherin expression (E-cadherin): stimulate E-cadherin expression
